Experiment [1] concerns 2G12 anti-HIV antibody. Put plainly: 2G12 binding to glycan array printed on glass slide. More on the design: species or system human. To be noted: for Rel. spec. (relative binding activity of 2G12): glycan array on glass slide, 2G12 pre-complexed with anti-IgG-FITC; for 2G12 binding on glycan array: initial experiments. An excerpt:
The natural high mannose type N-glycans used for the analysis were purified from pronase treated bovine ribonuclease B on Dionex. Each preparation was a single molecular weight species as determined by MALDI-MS.
Construction of a glycan array printed on a glass slide: The library of carbohydrate structures was obtained through chemical and chemo-enzymatic synthesis as described above, as well as natural sources. This compound library contained a N-hydroxy succinimide (NHS)-reactive primary amino group, which was printed on a commercial NHS-activated glass surface (Accelr8 Technology Corporation, Denver, Colo.) using a microarray gene printer (TSRI).
Each glycan type was printed (≈0.5 nL/spot) at various concentrations (10-100 μM) and each concentration in a replicate of six. Slides were further incubated with ethanolamine buffer to deactivate remaining NHS functional groups.
The 2G12 antibody was pre-complexed (for 10 min) with secondary human anti-IgG-FITC (2:1, 20 μg/mL) prior to application to the glycan array. After incubation with the 2G12 antibodies, the array washed by dipping the slide in buffer and water.

Experiment [2] deals with T1, chST6GalNAc-I (Gallus gallus, UniProt Q92183).
T1 construct: made in house; host or cells: insect cells
Put plainly: chST6GalNAc-I activity on small acceptor molecules. The experiment is classed as biochemical, chicken. To be noted: α-D-galacto derivatives as acceptors. An excerpt: The inventors have previously reported the cloning, expression, and characterization of chicken ST6GalNAc-I and its use in preparative synthesis of the O-linked sialoside antigens, STn-, α(2-6)SiaT-, α(2-3)SiaT- and Di-SiaT-antigen. Blixt, O.; Allin, K.; Pereira, L.; Datta, A. and Paulson, J. C., J. Am. Chem. Soc. 2002, 124, 5739-5746. Briefly, the recombinant enzyme was expressed in insect cells and purified by CDP-sepharose affinity chromatography to generate approximately 10 U/L of cell culture.

Experiment [3] has as its system 2G12 antibody. Put plainly: Carbohydrate microarray analysis, microtiter plate, oligomannose-2G12 dissociation constants (Example 11). The experiment is classed as binding, human. The following applies: microtiter plate array. The procedure:
Carbohydrate microarray analysis. Ninety-six well NHS-coated microtiter plates (NoAb Biodiscoveries) were treated with 200 μL of a 1 mM methanolic solution of the amino-functionalized disulfide and alkyne containing linker (scheme V) containing 5% diisopropylethylamine (DIEA) and incubated overnight at 4° C. The microtiter plate was then washed with 2×200 μL methanol and 2×200 μL water. Next, 200 μL solutions of azido-functionalized oligomannose derivatives 21-25 at varying concentrations from 0 to 500 μM in 5% DIEA/methanol were introduced. A sprinkle of copper (I) iodide was added and the contents were allowed to react overnight at 4° C. The next day, the contents were removed and the plates were washed with 2×200 μL methanol and 2×200 μL water. The plates were then blocked with 0.1% Tween20 solution in HEPES buffer pH 7.5 at 4° C. for 1 hour and then washed with 3×200 μL HEPES buffer. […] Detection of the FITC-tagged secondary antibody was performed in 200 μL water using a fluorescence plate reader. […]
Carbohydrate Microarray Analysis. […] Kd values for the interaction of 2G12 with oligomannoses 4, 5, 7, 8, 9 (Table 9) were determined using a microtiter-based assay with detection via a fluorescent secondary antibody (see Bryan et al.(2004) J. Am. Chem. Soc. 126, 8640-41).

The target in experiment [4] is 2G12 antibody. Put plainly: 2G12 binding, cleavable linker glycan array in microtiter plates (Example 10). Also noted: species or system human. To be noted: for 2G12 epitope / affinity: cleavable linker array. The procedure: Cleavable Linker Glycan Array in Microtiter Plates: Further experiments were performed using glycans immobilized within microtiter wells with the cleavable triazole linkers described in Example 7 as shown in FIG. 11.
2G12 Binding: After washing with QH2O, wells were blocked with 10 mM HEPES buffer, pH 7.5/150 mM NaCl buffer (200 μL) containing 0.1% Tween-20 over 1 h at 4° C. The buffer was then removed and 2G12 (17 μg/mL PBS buffer; 200 μL) was incubated in the well over 1 h at 4° C. Wells were then washed with PBS buffer (3×; 200 μL) and fluorescein-conjugated Goat Anti-Human IgG antibody (14 μg/mL PBS buffer; 200 μL) was incubated in the well over 1 h in the dark at 4° C. Wells were then washed with PBS buffer (3×; 200 μL) and fluorescence was measured with an excitation wavelength of 485 nm and emission wavelength of 535 nm.
Further studies were performed using a cleavable linker array to clarify the types of mannose-containing glycans bound by the 2G12 anti-HIV antibodies. […] The results of a binding study using increasing amounts of labeled Manα1,2Manα1,3Manα1,2 Manα1,6Man glycan with a constant amount of 2G12 antibody are shown in FIG. 16.

Experiment [5] deals with 2G12 binding to gp120JR-CSF. Put plainly: Solution phase ELISA, oligomannose inhibition of 2G12 binding to gp120. To be noted: oligomannose at 0.5 mM. Also noted: species or system human. The method, then:
Enzyme-linked immunosorbent assay. Microtiter plate wells (flat bottom, Costar type 3690; Corning Inc.) were coated with 50 ng/well gp120JR-CSF overnight at 4° C. All subsequent steps were performed at room temperature. The wells were then washed four times with PBS/0.05% (vol/vol) Tween20 (Sigma) using a microplate washer (SkanWash 400, Molecular Devices) prior to blocking for 1 hr with 3% (mass/vol) BSA. IgG 2G12, diluted to 0.5 μg/mL (25 ng/well) with 1% (mass/vol) BSA/0.02% (vol/vol) Tween20/PBS (PBS-BT), was then added for 2 hrs to the antigen-coated wells in the presence of serially-diluted oligomannoses starting at 2 mM.
Unbound antibody was removed by washing four times, as described above. Bound 2G12 was detected with an alkaline phosphatase-conjugated goat anti-human IgG F(ab′)2 antibody (Pierce) diluted 1:1000 in PBS-BT. After 1 hr, the wells were washed four times and bound antibody was visualized with p-nitrophenol phosphate substrate (Sigma) and monitored at 405 nm.
Solution Phase ELISA Assay Analysis of Oligomannose 1-8 Inhibition of 2G12 Binding. Man9GlcNAc2 1 and deprotected oligomannoses 2-6 and 7-9 (see FIG. 17) were evaluated for their ability to inhibit the interaction between 2G12 and gp120 in a solution phase enzyme-linked immunosorbent assay (ELISA). […]
(In an ELISA, binding on a coated surface is turned into a signal by an enzyme label.)

Marks after values point to notes of the source that are not given here.

T1 sequence (Q92183 whole entry): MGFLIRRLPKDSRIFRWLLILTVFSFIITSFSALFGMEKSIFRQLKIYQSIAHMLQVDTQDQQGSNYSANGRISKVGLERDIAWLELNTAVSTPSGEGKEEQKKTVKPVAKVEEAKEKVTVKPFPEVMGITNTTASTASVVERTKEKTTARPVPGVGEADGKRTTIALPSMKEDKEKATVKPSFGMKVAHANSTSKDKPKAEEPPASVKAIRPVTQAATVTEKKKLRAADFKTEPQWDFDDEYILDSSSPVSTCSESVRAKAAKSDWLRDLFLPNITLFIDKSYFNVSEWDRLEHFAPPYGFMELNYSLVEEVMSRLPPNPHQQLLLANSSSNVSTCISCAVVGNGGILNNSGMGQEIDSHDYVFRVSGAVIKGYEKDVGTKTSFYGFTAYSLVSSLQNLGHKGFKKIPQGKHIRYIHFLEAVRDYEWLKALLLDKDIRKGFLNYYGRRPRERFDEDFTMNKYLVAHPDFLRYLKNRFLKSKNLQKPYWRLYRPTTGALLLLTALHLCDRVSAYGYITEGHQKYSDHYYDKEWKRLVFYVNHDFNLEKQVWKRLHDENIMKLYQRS

Regarding `OCC1O[C@@H](O)C(O)[C@@H](O)[C@@H]1O[C@@H]1OC(CO)[C@H](O)[C@H](O)C1O` (some centres unmarked) [Compound 4], the “Rel. spec. (relative binding activity of 2G12)” value in experiment [1] is “− (− = <1000)”. Moreover, in experiment [2], the “chST6GalNAc-I activity, cpm” value is on record as 3043 cpm and the “chST6GalNAc-I activity, nmol/mg × min^−1” value was 2.90 nmol/mg × min^−1. As to `O=[N+]([O-])c1ccc(O[C@@H]2OC(CO)[C@@H](O[C@@H]3OC(CO)[C@H](O)[C@H](O)C3O)[C@H](O)C2O)cc1` (some centres unmarked) [Compound 5], in experiment [1], the “Rel. spec. (relative binding activity of 2G12)” value was “− (− = <1000)”. Further, in experiment [2], the “chST6GalNAc-I activity, cpm” value is listed as 1421 cpm and the “chST6GalNAc-I activity, nmol/mg × min^−1” value is recorded as 1.30 nmol/mg × min^−1. The corresponding values for `CC(=O)N[C@H]1C(O)O[C@H](CO)[C@@H](O[C@@H]2O[C@H](CO)[C@H](O)[C@H](O)[C@H]2O)[C@@H]1O` (some centres unmarked) [Compound 6] are “− (− = <1000)”, 13277 cpm and 12.50* nmol/mg × min^−1. Consider `CC(=O)N[C@H]1C(O)O[C@H](CO)[C@H](O)[C@@H]1O` (stereo partly drawn) [D-GalNAc, reference compound], for which the “chST6GalNAc-I activity, nmol/mg × min^−1” value in experiment [2] is on record as 0.00 nmol/mg × min^−1. As for `NCCCCCO[C@H]1O[C@H](CO[C@H]2O[C@H](CO)[C@@H](O)[C@H](O)[C@@H]2O[C@H]2O[C@H](CO)[C@@H](O)[C@H](O)[C@@H]2O)[C@@H](O)[C@H](O[C@H]2O[C@H](CO)[C@@H](O)[C@H](O)[C@@H]2O[C@H]2O[C@H](CO)[C@@H](O)[C@H](O)[C@@H]2O)[C@@H]1O` [Oligomannose 5], in experiment [3], the “2G12 binding affinity” value is recorded as “greatest affinity”.

Consider Man-8#aa Man8-aminoacid [Glycan 144], for which the “2G12 binding on glycan array” value in experiment [1] is on record as “Binding was observed”. For the compound Man-9#aa Man9-aminoacid [Glycan 145], the “2G12 binding on glycan array” value in experiment [1] is listed as “smaller level of binding”. Manα1,2 Manα1,2Manα1,3Man displayed a Kd in experiment [4] (binding to 2G12, cleavable linker array) of 100 nM. The “2G12 epitope / affinity” value in experiment [4] was “optimal epitope(s) with micromolar affinity to 2G12”. For the compound Manα1,2Manα1,3Manα1,2 Manα1,6Man, in experiment [4], the “2G12 epitope / affinity” value is given as “optimal epitope(s) with micromolar affinity to 2G12”. For the compound Oligomannose 3, the “inhibition (%) of 2G12 binding to gp120” value in experiment [5] came out at 15.8%.

By Kd is commonly meant the free concentration of one partner at which half of the binding sites on the other are occupied at equilibrium, for simple one-to-one binding. A high value points to a looser complex.

The record behind these values is patent US20070213278A1, “Arrays with cleavable linkers” (priority 2004, published 2007).
